# According to the NIST ThermoML archive (doi:10.1021/je8002699):
# Values joined by “and” are separate entries in the source; they are usually repeats but may differ in a detail not shown here. Identical values can stand only once. Numbers after ± are expanded uncertainties.
# Legend:
# [1] = refractive index (Na D-line) (dimensionless); settings: 101.33 kPa, Liquid
# [2] = for mass density / viscosity / speed of sound: Liquid
# [3] = refractive index (Na D-line) (dimensionless); xn = mol fraction of the nth substance listed; settings: 101 kPa, Liquid, x2 = 0
# [4] = xn = mol fraction of the nth substance listed; settings: x2 = 0; for mass density / speed of sound / viscosity: 101 kPa, Liquid
Compound,refractive index ([1]; 303.15 K),refractive index ([1]; 313.15 K),refractive index ([1]; 323.15 K),surface tension liquid-gas ([2]; 303.15 K),"mass density ([2]; 303.15 K, 101 kPa)","speed of sound ([2]; 303.15 K, 101 kPa)","viscosity ([2]; 303.15 K, 101 kPa)",surface tension liquid-gas ([2]; 313.15 K),"mass density ([2]; 313.15 K, 101 kPa)","speed of sound ([2]; 313.15 K, 101 kPa)","viscosity ([2]; 313.15 K, 101 kPa)",surface tension liquid-gas ([2]; 323.15 K),"mass density ([2]; 323.15 K, 101 kPa)","speed of sound ([2]; 323.15 K, 101 kPa)","viscosity ([2]; 323.15 K, 101 kPa)",refractive index ([3]; 303.15 K),refractive index ([3]; 313.15 K),refractive index ([3]; 323.15 K),surface tension liquid-gas ([4]; 303.15 K),mass density ([4]; 303.15 K),other results
CC(=O)CC(C)(C)O [4-hydroxy-4-methylpentan-2-one],1.4239 ± 0.005,1.4198 ± 0.005,1.4151 ± 0.005,29.44 ± 0.85 mN/m,936 ± 7.8 kg/m3,1256 ± 6 m/s,2.89 ± 0.13 mPa·s,28.92 ± 0.84 mN/m,912 ± 8.3 kg/m3,1183 ± 5 m/s,2.791 ± 0.13 mPa·s,28.12 ± 0.82 mN/m and 27.12 ± 0.8 mN/m,901 ± 8.9 kg/m3,1121 ± 5 m/s,2.67 ± 0.12 mPa·s,,,,,,"mass density ([2]; 293.15 K, 101 kPa): 938 ± 7 kg/m3; viscosity ([2]; 293.15 K, 101 kPa): 2.89 ± 0.13 mPa·s"
O=[N+]([O-])c1ccccc1 [nitrobenzene],1.5504 ± 0.005,1.5476 ± 0.005,1.5435 ± 0.005,40.9 ± 1.1 mN/m,1200 ± 10 kg/m3,1413 ± 6 m/s,1.617 ± 0.076 mPa·s,38.24 ± 1.1 mN/m,1196 ± 11 kg/m3,1318 ± 6 m/s,1.465 ± 0.069 mPa·s,36.47 ± 1 mN/m,1185 ± 12 kg/m3,1221 ± 5 m/s,1.343 ± 0.064 mPa·s,,,,,,
O=[N+]([O-])c1ccccc1 [nitrobenzene] + CC(=O)CC(C)(C)O,,,,,,,,,,,,,,,,1.5504 ± 0.005,1.5476 ± 0.005,1.5435 ± 0.005,40.9 ± 1.1 mN/m,1200 ± 10 kg/m3,speed of sound ([4]; 303.15 K): 1413 ± 6 m/s; viscosity ([4]; 303.15 K): 1.617 ± 0.076 mPa·s; surface tension liquid-gas ([4]; 313.15 K): 38.24 ± 1.1 mN/m; mass density ([4]; 313.15 K): 1196 ± 11 kg/m3; speed of sound ([4]; 313.15 K): 1318 ± 6 m/s; viscosity ([4]; 313.15 K): 1.465 ± 0.069 mPa·s; surface tension liquid-gas ([4]; 323.15 K): 36.47 ± 1 mN/m; mass density ([4]; 323.15 K): 1185 ± 12 kg/m3; speed of sound ([4]; 323.15 K): 1221 ± 5 m/s; viscosity ([4]; 323.15 K): 1.343 ± 0.064 mPa·s
CCc1ccccc1 [ethylbenzene] + CC(=O)CC(C)(C)O,,,,,,,,,,,,,,,,1.4985 ± 0.0026,1.4901 ± 0.0026,1.4821 ± 0.0026,30.01 ± 0.86 mN/m,867 ± 3.9 kg/m3,speed of sound ([4]; 303.15 K): 1335 ± 6 m/s; viscosity ([4]; 303.15 K): 0.577 ± 0.047 mPa·s; surface tension liquid-gas ([4]; 313.15 K): 29.04 ± 0.83 mN/m; mass density ([4]; 313.15 K): 842 ± 3.9 kg/m3; speed of sound ([4]; 313.15 K): 1289 ± 6 m/s; viscosity ([4]; 313.15 K): 0.5914 ± 0.048 mPa·s; surface tension liquid-gas ([4]; 323.15 K): 28.12 ± 0.81 mN/m; mass density ([4]; 323.15 K): 832.1 ± 4.1 kg/m3; speed of sound ([4]; 323.15 K): 1204 ± 5 m/s; viscosity ([4]; 323.15 K): 0.4841 ± 0.041 mPa·s
CCc1ccccc1 [ethylbenzene],1.4985 ± 0.0026,1.4901 ± 0.0026,1.4821 ± 0.0026,30.01 ± 0.86 mN/m,867 ± 3.9 kg/m3,1335 ± 6 m/s,0.577 ± 0.047 mPa·s,29.04 ± 0.83 mN/m,842 ± 3.9 kg/m3,1289 ± 6 m/s,0.5914 ± 0.048 mPa·s,28.12 ± 0.81 mN/m,832.1 ± 4.1 kg/m3,1204 ± 5 m/s,0.4841 ± 0.041 mPa·s,,,,,,
Cc1ccccc1 [toluene],,,,,,,,,,,,,,,,,,,,,"viscosity ([2]; 298.15 K, 101.33 kPa, Capillary tube (Ostwald / Ubbelohde) method): 0.555 ± 0.0042 mPa·s; mass density ([2]; 298.15 K, 101.33 kPa, Pycnometric method): 862.4 ± 1 kg/m3"
